{"source": "patent US11396513B2", "about": "“Compositions for activating pyruvate kinase” (FORMA Therapeutics, Inc., priority 2017, dated 2022)", "key": {"[1]": {"biological_target": "PKR (wild type) (Homo sapiens, UniProt P30613)", "sequence (P30613 whole entry)": "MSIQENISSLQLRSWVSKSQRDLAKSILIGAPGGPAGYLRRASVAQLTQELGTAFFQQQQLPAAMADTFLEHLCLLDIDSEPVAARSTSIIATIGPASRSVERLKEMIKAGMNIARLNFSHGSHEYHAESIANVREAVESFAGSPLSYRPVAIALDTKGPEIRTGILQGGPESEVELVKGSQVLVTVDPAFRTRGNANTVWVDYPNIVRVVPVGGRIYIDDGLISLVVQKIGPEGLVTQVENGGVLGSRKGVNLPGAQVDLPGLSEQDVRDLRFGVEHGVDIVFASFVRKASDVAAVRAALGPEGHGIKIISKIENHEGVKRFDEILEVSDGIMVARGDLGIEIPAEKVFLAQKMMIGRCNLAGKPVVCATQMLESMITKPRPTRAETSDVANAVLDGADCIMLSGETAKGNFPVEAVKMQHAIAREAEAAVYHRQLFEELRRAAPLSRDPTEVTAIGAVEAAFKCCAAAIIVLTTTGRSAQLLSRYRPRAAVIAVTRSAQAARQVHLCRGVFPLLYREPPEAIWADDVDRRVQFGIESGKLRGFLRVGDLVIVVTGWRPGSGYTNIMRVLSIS", "experiment": "Luminescence Assay (Kinase Glo Plus), PKR wild type", "type": "biochemical", "protocol": "(§1) The ability of compound 1 to activate PKR was determined using the following Luminescence Assay. The effect of phosphorylation of adenosine-5′-diphosphate (ADP) by PKR (wild type) is determined by the Kinase Glo Plus Assay (Promega) in the presence or absence of FBP [D-Fructose-1,6-diphosphate; BOC Sciences, CAS: 81028-91-3] as follows. Unless otherwise indicated, all reagents are purchased from Sigma-Aldrich. All reagents are prepared in buffer containing 50 mM Tris-HC1, 100 mM KC1, 5 mM MgC12, and 0.01% Triton X100, 0.03% BSA, and 1 mM DTT. Enzyme and PEP [Phospho(enol) pyruvic acid] are added at 2× to all wells of an assay-ready plate containing serial dilutions of test compounds or DMSO vehicle. Final enzyme concentrations for PKR(wt), PKR(R510Q), and PKR(G332S) are 0.8 nM, 0.8 nM, and 10 nM respectively. Final PEP concentration is 100 μM. The Enzyme/PEP mixture is incubated with compounds for 30 minutes at RT before the assay is initiated with the addition of 2×ADP [Adenosine-5′-diphosphate] and KinaseGloPlus. Final concentration of ADP is 100 μM. […] For assays containing FBP, that reagent is added at 30 μM upon reaction initiation. Reactions are allowed to progress for 45 minutes at RT until luminescence is recorded by the BMG PHERAstar FS Multilabel Reader. The compound is tested in triplicate at concentrations ranging from 42.5 μM to 2.2 nM in 0.83% DMSO. […]"}, "[2]": {"biological_target": "PKR(G332S) (Homo sapiens, UniProt P30613, G332S)", "sequence (P30613 whole entry G332S)": "as the sequence (P30613 whole entry) above, with G332S counted along it", "experiment": "Luminescence Assay (Kinase Glo Plus), G332S PKR mutant", "type": "biochemical", "details": "G332S PKR mutant 10 nM; PEP 100 μM; ADP 100 μM; four parameter fit; triplicate", "protocol": "as §1"}}, "data": [{"smiles": "CC(C)(O)C(=O)N1CC2=C(C1)CN(S(=O)(=O)c1ccc3c(c1)NCCO3)C2", "note": "[compound 1, 1-(5-((3,4-Dihydro-2H-benzo[b][1,4]oxazin-6-yl)sulfonyl)-3,4,5,6-tetrahydropyrrolo[3,4-c]pyrrol-2(1H)-yl)-2-hydroxy-2-methylpropan-1-one]", "values": [{"measurement": "AC50", "setting": "[1]; Luminescence Assay, PKR form not specified, definition of PKR Activator Compound", "value": "< 1", "unit": "µM"}, {"measurement": "AC50", "setting": "[1]; PKR wild type enzyme 0.8 nM, PEP 100 μM, ADP 100 μM, four parameter fit, triplicate", "value": "0.1 to 1", "unit": "µM"}, {"measurement": "AC50", "setting": "[2]", "value": "0.1 to 1", "unit": "µM"}]}]}
